Laboratory results from patent publication US20210038607A1, “OXADIAZOLYLTHIOPHENE DERIVATIVES USEFUL AS HISTONE DEACETYLASE INHIBITORS” (Karus Therapeutics Limited, priority 2018, published 2021).

Experiments:
[1] = biological target: T1, Human HDAC8 (Homo sapiens, UniProt Q9BY41); assay: HDAC8 biochemical assay, AMC-labeled peptide substrate; conditions: read-out: HDAC Isoform IC50 (nM) 8
T1 construct: full length with C-terminal His tag, MW=42.6 kDa; His (C); host or cells: baculovirus expression system
T1 sequence (Q9BY41 1-377): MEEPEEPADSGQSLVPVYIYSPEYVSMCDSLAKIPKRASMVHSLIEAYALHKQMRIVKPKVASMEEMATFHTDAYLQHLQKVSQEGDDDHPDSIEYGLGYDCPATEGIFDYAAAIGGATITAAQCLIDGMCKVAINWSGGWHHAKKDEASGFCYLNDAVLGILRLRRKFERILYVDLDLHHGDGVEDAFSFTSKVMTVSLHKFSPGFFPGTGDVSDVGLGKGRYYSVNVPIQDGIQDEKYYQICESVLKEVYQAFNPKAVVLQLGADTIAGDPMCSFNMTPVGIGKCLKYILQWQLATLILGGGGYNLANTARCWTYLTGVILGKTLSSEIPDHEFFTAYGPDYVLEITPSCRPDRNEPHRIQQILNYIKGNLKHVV
Procedure, shortened: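 Two-step fluorogenic readout: compounds and enzyme deacetylate 100 µM RHK(Ac)K(Ac)AMC for 2 h at 30° C (pH8.0 Tris buffer, BSA, 1% DMSO final), then developer releases AMC, read at 360/460 Ex/Em. Enzyme: 1 ng/ul full-length His-tagged human HDAC8 from baculovirus.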

[2] = biological target: T2, Human HDAC1 (Homo sapiens, UniProt Q13547); assay: HDAC1 biochemical assay, AMC-labeled peptide substrate; conditions: read-out: HDAC Isoform IC50 (nM) 1
T2 construct: full length with C-terminal His-tag and C-terminal FLAG-tag; His (C); FLAG (C); host or cells: baculovirus expression system
T2 sequence (Q13547 whole entry, canonical isoform): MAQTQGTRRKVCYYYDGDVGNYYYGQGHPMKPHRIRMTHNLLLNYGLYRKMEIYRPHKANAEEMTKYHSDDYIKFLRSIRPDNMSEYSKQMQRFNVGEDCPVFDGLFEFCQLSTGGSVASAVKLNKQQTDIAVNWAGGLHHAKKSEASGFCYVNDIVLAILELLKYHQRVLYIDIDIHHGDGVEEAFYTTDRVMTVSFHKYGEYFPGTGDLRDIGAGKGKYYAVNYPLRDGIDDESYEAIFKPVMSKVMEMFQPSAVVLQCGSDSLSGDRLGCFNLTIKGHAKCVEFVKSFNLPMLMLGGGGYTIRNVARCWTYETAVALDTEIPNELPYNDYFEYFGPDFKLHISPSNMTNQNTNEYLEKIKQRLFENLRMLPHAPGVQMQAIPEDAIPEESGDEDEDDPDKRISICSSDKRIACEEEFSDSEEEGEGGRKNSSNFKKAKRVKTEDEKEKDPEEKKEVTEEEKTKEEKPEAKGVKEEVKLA
Procedure, shortened: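 Two-step fluorogenic read: HDAC1 deacetylates 50 μM acetyl-lysine AMC peptide RHKK(Ac)AMC for 1 h at 30° C (pH 8.0, 1% DMSO, with compound), then developer digests the product for fluorescence at Ex/Em 360/460. Enzyme is full-length human, His/FLAG-tagged, insect-cell expressed, at 0.3 ng/ul.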

[3] = biological target: T3, Human HDAC11 (Homo sapiens, UniProt Q96DB2); assay: HDAC11 biochemical assay, class IIa-specific substrate; conditions: read-out: HDAC Isoform IC50 (nM) 11
T3 construct: Human HDAC11 (full length); His (N); host or cells: baculovirus expression system
T3 sequence (Q96DB2 1-347): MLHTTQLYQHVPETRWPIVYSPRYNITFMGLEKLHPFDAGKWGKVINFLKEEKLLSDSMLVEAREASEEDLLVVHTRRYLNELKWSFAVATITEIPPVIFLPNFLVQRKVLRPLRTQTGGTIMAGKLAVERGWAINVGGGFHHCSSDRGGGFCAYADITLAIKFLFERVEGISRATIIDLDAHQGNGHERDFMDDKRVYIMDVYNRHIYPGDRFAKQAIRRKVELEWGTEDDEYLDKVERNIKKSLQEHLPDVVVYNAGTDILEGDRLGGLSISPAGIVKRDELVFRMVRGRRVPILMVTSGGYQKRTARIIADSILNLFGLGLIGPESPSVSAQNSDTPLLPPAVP
Procedure, shortened: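 Full-length N-His human HDAC11 from baculovirus, 5 ng/μl, incubated with 50 μM Boc-Lys(trifluoroacetyl)-AMC for 30 min at 30 °C. Buffer: 50 mM Tris-HCl pH 8.0, 137 mM NaCl, 2.7 mM KCl, 1 mM MgCl2, 1 mg/mL BSA, 1% DMSO. Developer releases AMC; fluorescence read at 360/460 nm.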

SMILES | IC50 [1] | IC50 [2] | IC50 [3]
CS(=O)(=O)c1ccc(N(Cc2ccc(-c3noc(C(F)(F)F)n3)s2)c2cnccn2)nn1 [Example DL, 6-Methanesulfonyl-N-(pyrazin-2-yl)-N-({5-[5-(trifluoromethyl)-1,2,4-oxadiazol-3-yl]thiophen-2-yl}methyl)pyridazin-3-amine] | ≤ 10000 nM | ≤ 10000 nM | > 10000 nM
FC(F)(F)c1ccc(N(Cc2ccc(-c3noc(C(F)(F)F)n3)s2)c2cnccn2)nn1 [Example DH, N-(Pyrazin-2-yl)-6-(trifluoromethyl)-N-({5-[5-(trifluoromethyl)-1,2,4-oxadiazol-3-yl]thiophen-2-yl}methyl)pyridazin-3-amine] | ≤ 10000 nM | ≤ 10000 nM | > 10000 nM
CS(=O)(=O)c1nccc(N(Cc2ccc(-c3noc(C(F)(F)F)n3)s2)c2cnccn2)n1 [Example CE, 2-Methanesulfonyl-N-(pyrazin-2-yl)-N-({5-[5-(trifluoromethyl)-1,2,4-oxadiazol-3-yl]thiophen-2-yl}methyl)pyrimidin-4-amine] |  | ≤ 10000 nM | 
FC(F)(F)c1nc(-c2ccc(CN(c3cncnc3)c3cnccn3)s2)no1 [Example CR, N-(Pyrazin-2-yl)-N-({5-[5-(trifluoromethyl)-1,2,4-oxadiazol-3-yl]thiophen-2-yl}methyl)pyrimidin-5-amine] | ≤ 10000 nM | > 10000 nM | > 10000 nM
FC(F)(F)c1nc(-c2ccc(CN(c3ccncn3)c3cnccn3)s2)no1 [Example BZ, N-(Pyrazin-2-yl)-N-({5-[5-(trifluoromethyl)-1,2,4-oxadiazol-3-yl]thiophen-2-yl}methyl)pyrimidin-4-amine] | ≤ 10000 nM | > 10000 nM | > 10000 nM
FC(F)(F)c1nc(-c2ccc(CN(c3cnccn3)c3ccc(N4CCCC4)nn3)s2)no1 [Example DI, N-(Pyrazin-2-yl)-6-(pyrrolidin-1-yl)-N-({5-[5-(trifluoromethyl)-1,2,4-oxadiazol-3-yl]thiophen-2-yl}methyl)pyridazin-3-amine] | ≤ 10000 nM | ≤ 10000 nM | > 10000 nM
FC(F)(F)c1nc(-c2ccc(CN(c3ccccn3)c3cnccn3)s2)no1 [Example V, N-(Pyridin-2-yl)-N-({5-[5-(trifluoromethyl)-1,2,4-oxadiazol-3-yl]thiophen-2-yl}methyl)pyrazin-2-amine] | > 10000 nM | > 10000 nM | > 10000 nM
